This is an account of results in patent publication US20160015064A1, “COMPOUNDS, COMPOSITIONS, AND METHODS FOR MODULATING SWEET TASTE” (CHROMOCELL CORPORATION, priority 2013, published 2016).

For experiment [1], the system named is perception of the sweet taste in an aqueous environment. Nature of the experiment: Trained descriptive analysis (DA) panel, sweet attribute. The format is in vivo, humans. The note with it: for Compound effects beyond the additive effect of inherent sweetness: 4% fructose and 8% sucrose. How it is done: The effect of the test compounds on the perception of the sweet taste in an aqueous environment, in the absence or presence of carbohydrate sweeteners, was evaluated using a descriptive analysis methodology with a group of trained panelists, as follows.
Candidate panelists were recruited, with prescreening and personal interviews, and were assessed for their ability to detect, recognize and differentiate basic taste attributes or mixtures thereof as part of a standardized acuity test. These candidate panelists were also assessed for their innate ability to identify flavors, and to rank on intensity scales. Other senses such as smell and vision were also included as part of the assessment. Candidates also were screened for their ability to use the language to describe and articulate ideas.
Selected candidates proceeded to training as a group in three phases: (1) Lexicon development, (2) Concept alignment, and (3) Scaling descriptors. During lexicon development, panelists evaluated products appropriate for use in the study to generate and align on terms describing the flavor, taste, aromatic, trigeminal, and temporal attributes. During concept alignment, the panel evaluated the products mentioned above to clarify and confirm the attributes that were generated during lexicon development using reference standards that appropriately define each attribute; these are either physical references (e.g. sucrose solutions) or verbal descriptions (e.g. overall flavor). Product terms and concepts were validated during this portion of the study.
In the last phase, scaling descriptors, the panel participated in a series of exercises focused on ordering and ranking samples according to relative attribute intensity, measuring attribute intensity using a defined length of line scale. Whenever possible, different levels or concentration of references were used as anchors to facilitate use of the scale. Panelists were provided with blinded references at this stage to evaluate their understanding and perception of the scale.
The panel used in this example was trained to reference sweet attributes in an absolute manner, such that a particular concentration of sweetener is always measured by the panelists at the same point using a 15 cm line scale where each cm represents a 1% increase in sucrose to cover the range of 0% to 15% sucrose. For the rest of the attributes, the panel was trained using a hybrid approach between descriptive analysis methods (e.g. quantitative descriptive analysis, the sensory spectrum, etc.) well-known to those skilled in the art.
The trained panel was then used for a descriptive analysis assessment for Compounds 1, 2 and 3 in aqueous solutions at pH 3 and pH 7. Each of the three compounds was tested at 35 ppm in sucrose and fructose sweeteners. In addition, Compounds 1, 2 and 3 were also examined in water at pH 3 and pH 7 to assess for any inherent sweetness.
The aqueous sweetener solutions were prepared by adding, fructose or sucrose (by weight), to water to achieve the desired concentration. Aqueous sucrose solutions at pH 3 were buffered using a final concentration of 0.096% Citric Acid plus 0.036% Sodium Citrate while aqueous fructose solutions at pH 3 were buffered using a final concentration of 0.06% Citric Acid and 0.0225% Sodium Citrate.
Compounds were first prepared as a […] concentrated stock solution in 100% ethanol. These concentrated stocks were then added to the aqueous sweetener solutions to result in a final ethanol concentration of 0.2%. In addition to compounds, a solubilizing agent at a final concentration of 0.02% was added to the aqueous sweetener solutions. Control samples were also balanced with 0.2% ethanol and in certain cases 0.02% solubilizing agent.
Both control (aqueous sweetener solutions without compound) and variant (aqueous sweetener solutions with compound) samples were blinded and randomized (by sweetener and pH blocks). […]

Experiment [2] has as its system perception of the sweet taste of an aqueous solution of sweetener. Briefly: Two-alternative forced choice sip and spit method (2AFC). In kind it is in vivo, humans. As for the experimental part: The effect of the test compounds on the perception of the sweet taste of an aqueous solution of sweetener in humans was evaluated using a two-alternative forced choice “sip and spit” method (2AFC).
(§1) The aqueous sweetener solutions were prepared by adding, fructose, sucrose or glucose (by weight), to water to achieve the desired concentration.
Compounds were first prepared as a 500-fold concentrated stock solution in 100% ethanol. These concentrated stocks were then added to the aqueous sweetener solutions to result in a final ethanol concentration of 0.2%. The control (positive and negative) samples were also normalized to 0.2% ethanol. This level of ethanol was not seen to contribute any perceived sweetness.
The 2AFC test used for compound evaluation was a blind and randomized test where taste panelists (n=15) evaluate a pair of sweetener solutions at a time—one sample contains aqueous sweetener solution plus compound (i.e. test) while the other contains aqueous sweetener solution at higher concentration without compound (i.e. positive control). Each test sample was compared against a positive control. For example, if the test sample contained 1× sweetener concentration with compound (e.g. 5% sucrose with compound), the positive control sample contained a 1.1× sweetener concentration (e.g. 5.5% sucrose without compound).
Panelists were instructed not to eat or drink (except water) for at least 1 h before the test. During the test, panelists were instructed to sip each sample, swirl it around their mouth and then expectorate. After tasting each sample in the pair, panelists were instructed to record the sample that is “sweeter” in taste. Panelists cleansed their palates by rinsing with water, eating a cracker and waiting for an interval of about 5 minutes. Each pair was tasted twice. All samples were tasted at ambient temperatures. Data were analyzed using binomial probabilities.
Approximate levels of sweetness enhancement in column 5 of Table 2 were calculated as follows:
Approximate levels of sweetness enhancement=Sweetener concentration of positive control surpassed by the test sample, divided by sweetener concentration for compound-containing sample (e.g. 1.15×=5.75% sucrose/5% sucrose).

Experiment [3] shares this test system. Briefly: Ranking sip and spit test of sweetness perception (R index). In kind it is in vivo, humans. The note with it: compound 10 ppm, vs negative control. As for the experimental part:
The effect of the test compounds on the perception of the sweet taste of an aqueous solution of sweetener in humans was evaluated using a ranking “sip and spit” method.
as §1
Compounds were first prepared as a 500-fold concentrated stock solution in 100% ethanol. These concentrated stocks were then added to the aqueous sweetener solutions to result in a final ethanol concentration of 0.2%. The control (positive and negative) samples were also normalized to 0.2% ethanol.
In the ranking test used for compound evaluation, taste panelists (n=15), rank samples in increasing order of sweetness. One set, comprising of 6 samples, was presented to each panelists at a given time and are asked to rank them in order of increasing sweetness.
Panelists were instructed not to eat or drink (except water) for at least 1 h before the test. During the test, panelists were instructed to sip each sample, swirl it around their mouth and then expectorate. After tasting each set, panelists were instructed to rank the 6 samples within the set from least sweet to most sweet. Where rank 1—is lowest in sweetness and rank 6—is highest in sweetness. Panelists cleansed their palates by rinsing with water, eating a cracker and waiting for an interval of 10 minutes. All samples were tasted at ambient temperatures. Each sample was tasted twice.
R index analysis was utilized to determine the degree of difference between a test and control sample. It indicates the level of discrimination between two samples. […] A positive control sample was used to assess the ability of the panelists to accurately discriminate sweetness perception differences from the negative control.

A further experiment has as its system flavor. The note with it: DuBois, et al., J. Med. Chem., 1981; cited from earlier work.
The test system of experiment [4] is perception of sweet taste, in an aqueous solution. Briefly: Inherent sweetness assessment, difference from control sip and spit method. The format is in vivo, humans. The note with it: compound 10 ppm in water, no sweetener. How it is done:
The aqueous sucrose solutions were prepared by adding, sucrose (by weight), to water to achieve the desired concentration.
Compounds were first prepared as a 500-fold concentrated stock solution in 100% ethanol. These concentrated stocks were then added to water to result in a final ethanol concentration of 0.2%. The control (including positive control) samples were also normalized to 0.2% ethanol. This level of ethanol was not seen to contribute any perceived sweetness.
The intrinsic effect of test compounds on the perception of sweet taste, in an aqueous solution, in humans was evaluated using a difference from control “sip and spit” method employing a verbal category scale.
In this method, panelists (n=12) evaluate one pair of samples at a time—one sample contains water plus compound (i.e. test) while the other contains water without compound (i.e. control). Panelists were instructed to first taste the un-blinded control followed by the test sample and asked to rate the size of sweetness difference between the test and control sample, using a 6 point verbal category scale:
Verbal category scale • No difference • Slight difference • Slight/moderate difference • Moderate difference • Moderate/large difference • Very large difference
4 blinded controls comprising of one negative control (0% sucrose) and 3 positive control samples (0.5% sucrose, 1% sucrose and 2% sucrose) were also included as part of the test to evaluate the ability of panelists to rank the difference in sweetness perception between 0.5% sucrose, 1% sucrose and 2% sucrose compared to 0% sucrose control.
Panelists were instructed not to eat or drink (except water) for at least 1 h before the test. During the test, panelists were instructed to sip each sample, swirl it around their mouth and then expectorate. Panelists cleansed their palates by rinsing with water, eating a cracker and waiting for an interval of about 5 minutes. All samples were tasted at ambient temperatures.
The verbal category response for each test sample was converted into an integer numerical value, from 1 to 6 (e.g. no difference=1 and very large difference=6). Total numbers of panelist responses per integer value were plotted as a histogram. An assessment was then made, comparing mean, mode of the numerical value, and the distribution of the histogram plots, for test samples as compared to that of the positive (0.5% sucrose, 1% sucrose and 2% sucrose) and negative control (0% sucrose) sample. Inherent sweetness levels are then correlated to the positive controls as discrete bins: • Bin 1: 0% sucrose • Bin 2: >0% sucrose—<0.5% sucrose • Bin 3: 0.5% sucrose • Bin 4: >0.5% sucrose—<1% sucrose • Bin 5: 1% sucrose • Bin 6: >1% sucrose—<2% sucrose • Bin 7: 2% sucrose

[5] abbreviates: 4% fructose, pH 3, 35 ppm compound plus solubilizing agent.
Where [6] appears, read: 4% fructose, pH 7, 35 ppm compound plus solubilizing agent.
Where [7] appears, read: 8% sucrose, pH 3, 35 ppm compound plus solubilizing agent.
Where [8] appears, read: 8% sucrose, pH 7, 35 ppm compound plus solubilizing agent.

With `COc1ccc(C2CC(=O)c3c(O)cccc3O2)cc1O` (racemic) [Compound 1, 5-hydroxy-2-(3-hydroxy-4-methoxyphenyl)chroman-4-one], the “DA Panel Average Sweetness Intensity Score (on 15 cm scale)” value in experiment [1] (setting [5]) was found to be 6.94; in experiment [1] (setting [6]), 7.80; in experiment [1] (setting [7]), 9.31; in experiment [1] (setting [8]), 9.97; in experiment [1] (citric acid-citrate solution pH 3, no sweetener, 35 ppm compound plus solubilizing agent), 1.14; in experiment [1] (water pH 7, no sweetener, 35 ppm compound plus solubilizing agent, 1 cm = 1% sucrose), 1.57. Moreover, the “Fold enhancement of sweetness perception as compared to control sweetener solution” value in experiment [1] (setting [5]) came out at 1.38X; in experiment [1] (setting [6]), 1.78X; in experiment [1] (setting [7]), 1.29X; in experiment [1] (setting [8]), 1.33X. For the same compound, in experiment [1] (citric acid-citrate solution pH 3, 35 ppm compound plus solubilizing agent), the “Perceived inherent sweetness compared to solubilizing agent alone” value is recorded as “do not show further significant increase in perceived inherent sweetness”. For the same compound, the “Compound effects beyond the additive effect of inherent sweetness” value in experiment [1] (pH 3, 35 ppm) was “super-additive effects”; in experiment [1] (pH 7, 35 ppm), “super-additive effects”. For the same compound, in experiment [1] (pH 3, fructose and sucrose, 35 ppm, ** p<0.01), the “Perceived sweetness vs control sweetener solutions (FIG. 2)” value is reported as “significant increase in perceived sweetness”. In addition, the “Perceived sweetness vs control sweetener solutions (FIG. 1)” value in experiment [1] (pH 7, fructose and sucrose, 35 ppm, ** p<0.01) is given as “significant increase in perceived sweetness”. Further, in experiment [1] (water pH 7, 35 ppm compound plus solubilizing agent), the “Perceived sweetness compared to solubilizing agent alone (inherent sweetness)” value was “further increase in perceived sweetness”. Also, the “Fold increase in perceived sweetness” value is on record as over 1.20X in experiment [2] (test sample 4% fructose, compound 25 ppm with positive 2AFC); over 1.15X in experiment [2] (test sample 5% sucrose, compound 15 ppm with positive 2AFC, positive control surpassed / test sweetener concentration); over 1.15X in experiment [2] (test sample 6.5% glucose, compound 10, 25 ppm with positive 2AFC). For the same compound, the “R Index Score” value in experiment [3] (4% fructose test sample) is reported as 90; in experiment [3] (5% sucrose test sample, significant at R index ≧60), 93. The “Reported flavor (bitter)” value in the experiment on flavor is “bitter flavor in a significant portion of tasters”. Moreover, in the experiment on flavor, the “Reported flavor (sweet)” value is reported as “sweet flavor”.
`COc1ccc(C2CC(=O)c3c(O)cc(F)cc3O2)cc1O` (stereo not shown) [Compound 15, 7-fluoro-5-hydroxy-2-(3-hydroxy-4-methoxyphenyl)chroman-4-one]: the “Fold increase in perceived sweetness” value in experiment [2] (test sample 4% fructose, compound 20 ppm with positive 2AFC) was over 1.1X. The “Correlated Inherent Sweetness Assessment” value in experiment [4] is on record as 0% sucrose.
